ChEMBL document CHEMBL6120942 (J Med Chem, 2024)
Converted amounts (≈) assume the structure as drawn. The source made the active and inactive calls. The calls are words filed in the database; no cut-off is given here.

Key:
[1] = Unbound clearance in male Beagle dog at 1 mg/kg, po or 1 mg/kg, iv measured upto 24 hrs by LC-MS/MS analysis; assay type: ADME, organism-based, Canis lupus familiaris; details: in vivo
[2] = biological target: T1, Voltage-gated inwardly rectifying potassium channel KCNH2 (Homo sapiens, UniProt Q12809); experiment: Inhibition of hERG by patch clamp assay; assay type: toxicity
[3] = biological target: T1, Voltage-gated inwardly rectifying potassium channel KCNH2; experiment: Inhibition of hERG by Qpatch clamp assay; assay type: toxicity
[4] = Kinetic solubility of compound; assay type: physicochemical; details: read-out: Kinetic_solubility
[5] = Permeability across apical to basolateral side in MDCK cells; assay type: ADME, cell-based, Canis lupus familiaris; details: dog, read-out: permeability
[6] = Metabolic stability in human microsome assessed as clearance measured upto 60 mins by LC-MS/MS analysis; assay type: ADME; details: microsomes, 1 h
[7] = Metabolic stability in human Hepatocyte assessed as clearance measured upto 60 mins by LC-MS/MS analysis; assay type: ADME, cell-based; details: hepatocytes, 1 h
[8] = Metabolic stability in Wistar rat liver Microsome assessed as clearance measured upto 60 mins by LC-MS/MS analysis; assay type: ADME; details: microsomes, 1 h
[9] = Metabolic stability in Wistar rat Hepatocyte assessed as clearance measured upto 60 mins by LC-MS/MS analysis; assay type: ADME, cell-based; details: hepatocytes, 1 h
[10] = Unbound clearance in male Wistar Han rat at 1 mg/kg, po or 1 mg/kg, iv measured upto 24 hrs by LC-MS/MS analysis; assay type: ADME, organism-based; details: in vivo
[11] = Half life in male Wistar Han rat at 1 mg/kg, iv measured upto 24 hrs by LC-MS/MS analysis; assay type: ADME, organism-based; details: in vivo
[12] = Volume of distribution at steady state in male Wistar Han rat at 1 mg/kg, po or 1 mg/kg, iv measured upto 24 hrs by LC-MS/MS analysis; assay type: ADME, organism-based; details: in vivo
[13] = Oral bioavailability in male Wistar Han rat at 1 mg/kg measured upto 24 hrs by LC-MS/MS analysis; assay type: ADME, organism-based; details: in vivo
[14] = Half life in male Beagle dog at 1 mg/kg, iv measured upto 24 hrs by LC-MS/MS analysis; assay type: ADME, organism-based, Canis lupus familiaris; details: in vivo
[15] = Volume of distribution at steady state in male Beagle dog at 1 mg/kg, po or 1 mg/kg, iv measured upto 24 hrs by LC-MS/MS analysis; assay type: ADME, organism-based, Canis lupus familiaris; details: in vivo
[16] = Oral bioavailability in male Beagle dog at 1 mg/kg measured upto 24 hrs by LC-MS/MS analysis; assay type: ADME, organism-based, Canis lupus familiaris; details: in vivo
[17] = Unbound clearance in Gottingen minipig at 1 mg/kg, po or 1 mg/kg, iv measured upto 24 hrs by LC-MS/MS analysis; assay type: ADME, organism-based, Sus scrofa; details: pig, in vivo
[18] = Half life in Gottingen minipig at 1 mg/kg, iv measured upto 24 hrs by LC-MS/MS analysis; assay type: ADME, organism-based, Sus scrofa; details: pig, in vivo
[19] = Volume of distribution at steady state in Gottingen minipig at 1 mg/kg, po or 1 mg/kg, iv measured upto 24 hrs by LC-MS/MS analysis; assay type: ADME, organism-based, Sus scrofa; details: pig, in vivo
[20] = Oral bioavailability in Gottingen minipig at 1 mg/kg measured upto 24 hrs by LC-MS/MS analysis; assay type: ADME, organism-based, Sus scrofa; details: pig, in vivo
[21] = physchem; details: octanol/water, pH 7.4, logD
Description: (§1) Distribution coefficient, logD of compound at pH 7.4 by HPLC analysis

[22] = in vitro; details: dog, MDCK-MDR1, permeability
Description: (§2) Permeability across apical to basolateral side in dog MDCK-MDR1 cells measured for 60 mins by LC-MS/MS analysis

[23] = biological target: Integrin alpha-V/beta-6 (Homo sapiens, UniProt P06756+P18564); experiment: Binding affinity to Integrin alphaVbeta6 (unknown origin); assay type: protein-complex assay
[24] = biological target: Integrin alpha-V/beta-5 (Homo sapiens, UniProt P06756+P18084); experiment: Binding affinity to Integrin alphaVbeta5 (unknown origin); assay type: protein-complex assay
[25] = biological target: Integrin alpha-V/beta-8 (Homo sapiens, UniProt P06756+P26012); experiment: Binding affinity to Integrin alphaVbeta8 (unknown origin); assay type: protein-complex assay
[26] = biological target: Integrin alpha-V/beta-1 (Homo sapiens, UniProt P05556+P06756); experiment: Binding affinity to Integrin alphaVbeta1 (unknown origin); assay type: protein-complex assay
[27] = biological target: Integrin alpha-V/beta-3 (Homo sapiens, UniProt P05106+P06756); experiment: Binding affinity to Integrin alphaVbeta3 (unknown origin); assay type: protein-complex assay
[28] = AUC in rat at 2 mg/kg, po; assay type: ADME, organism-based; details: in vivo
[29] = octanol/water, pH 7.4
Description: as §1

[30] = dog, mdck-mdr1, 1 h
Description: as §2

[31] = Volume of distribution at steady state in male Wistar Han rat at 2 mg/kg, po measured upto 24 hrs by LC-MS/MS analysis; assay type: ADME, organism-based; details: in vivo
[32] = Oral bioavailability in male Wistar Han rat at 2 mg/kg measured upto 24 hrs by LC-MS/MS analysis; assay type: ADME, organism-based; details: in vivo
[33] = test system: Mus musculus; experiment: Antifibrotic activity against bleomycin-induced mouse model of pulmonary fibrosis at 2 to 10 mg/kg, po; assay type: functional, organism-based; details: dose 2-10 mg/kg
[34] = test system: Mus musculus; experiment: Antifibrotic activity against bleomycin-induced mouse model of pulmonary fibrosis at 2 to 15 mg/kg, po; assay type: functional, organism-based; details: dose 2-15 mg/kg

T1 sequence (Q12809 whole entry): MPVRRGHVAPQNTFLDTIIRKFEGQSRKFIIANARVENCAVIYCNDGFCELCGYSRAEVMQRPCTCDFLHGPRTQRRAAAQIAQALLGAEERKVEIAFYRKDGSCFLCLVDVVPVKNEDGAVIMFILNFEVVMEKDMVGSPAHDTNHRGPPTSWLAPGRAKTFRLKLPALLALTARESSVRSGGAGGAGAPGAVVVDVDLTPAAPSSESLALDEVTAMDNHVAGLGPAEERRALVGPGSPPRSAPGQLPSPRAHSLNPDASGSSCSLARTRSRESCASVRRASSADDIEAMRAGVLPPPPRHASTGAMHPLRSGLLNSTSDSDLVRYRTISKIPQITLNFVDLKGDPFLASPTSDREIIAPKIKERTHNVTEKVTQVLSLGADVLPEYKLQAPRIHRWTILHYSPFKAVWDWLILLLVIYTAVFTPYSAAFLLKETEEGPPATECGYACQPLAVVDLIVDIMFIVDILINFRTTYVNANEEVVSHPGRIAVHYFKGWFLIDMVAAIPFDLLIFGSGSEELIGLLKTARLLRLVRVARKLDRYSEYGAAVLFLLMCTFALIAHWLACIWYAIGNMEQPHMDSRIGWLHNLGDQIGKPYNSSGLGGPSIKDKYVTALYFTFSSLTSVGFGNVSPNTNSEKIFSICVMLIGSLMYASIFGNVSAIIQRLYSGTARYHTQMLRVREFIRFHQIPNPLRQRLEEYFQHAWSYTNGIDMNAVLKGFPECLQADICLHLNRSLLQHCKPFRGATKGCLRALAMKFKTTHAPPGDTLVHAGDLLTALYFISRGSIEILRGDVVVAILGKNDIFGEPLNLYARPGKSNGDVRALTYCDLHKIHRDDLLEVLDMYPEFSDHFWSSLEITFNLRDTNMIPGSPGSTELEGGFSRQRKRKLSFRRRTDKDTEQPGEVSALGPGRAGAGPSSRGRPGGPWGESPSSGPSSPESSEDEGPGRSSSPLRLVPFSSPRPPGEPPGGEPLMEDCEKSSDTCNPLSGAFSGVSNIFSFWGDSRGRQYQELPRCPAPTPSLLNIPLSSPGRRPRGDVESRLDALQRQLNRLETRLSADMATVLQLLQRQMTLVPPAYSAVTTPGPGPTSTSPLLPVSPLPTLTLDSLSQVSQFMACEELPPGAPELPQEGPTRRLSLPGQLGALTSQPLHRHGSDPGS
Chain of Integrin alpha-V/beta-6 (P06756 31-889 limits assumed): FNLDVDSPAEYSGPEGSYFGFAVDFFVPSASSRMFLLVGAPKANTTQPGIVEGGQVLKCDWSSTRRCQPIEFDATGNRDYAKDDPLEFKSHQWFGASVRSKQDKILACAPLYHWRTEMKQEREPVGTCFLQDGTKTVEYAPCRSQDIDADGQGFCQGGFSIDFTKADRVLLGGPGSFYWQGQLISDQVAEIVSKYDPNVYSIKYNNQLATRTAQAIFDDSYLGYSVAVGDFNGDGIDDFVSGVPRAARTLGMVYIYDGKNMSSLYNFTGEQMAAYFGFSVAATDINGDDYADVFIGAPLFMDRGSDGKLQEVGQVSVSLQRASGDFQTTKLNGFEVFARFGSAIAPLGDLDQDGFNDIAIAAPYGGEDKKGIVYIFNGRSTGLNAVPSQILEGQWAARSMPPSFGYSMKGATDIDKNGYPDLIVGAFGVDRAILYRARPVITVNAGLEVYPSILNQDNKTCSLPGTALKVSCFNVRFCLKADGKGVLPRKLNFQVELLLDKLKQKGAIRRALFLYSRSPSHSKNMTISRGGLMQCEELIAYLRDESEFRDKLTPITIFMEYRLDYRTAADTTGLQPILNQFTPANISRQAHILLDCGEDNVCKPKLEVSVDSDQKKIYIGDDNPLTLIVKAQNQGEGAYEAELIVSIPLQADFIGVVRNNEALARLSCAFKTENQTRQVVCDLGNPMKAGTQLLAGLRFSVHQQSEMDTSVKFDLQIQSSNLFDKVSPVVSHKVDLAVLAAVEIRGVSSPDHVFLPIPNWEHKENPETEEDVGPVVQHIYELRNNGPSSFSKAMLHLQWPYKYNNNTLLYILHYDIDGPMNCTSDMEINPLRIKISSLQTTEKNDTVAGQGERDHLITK
Chain of Integrin alpha-V/beta-6 (P06756 891-1048 limits assumed): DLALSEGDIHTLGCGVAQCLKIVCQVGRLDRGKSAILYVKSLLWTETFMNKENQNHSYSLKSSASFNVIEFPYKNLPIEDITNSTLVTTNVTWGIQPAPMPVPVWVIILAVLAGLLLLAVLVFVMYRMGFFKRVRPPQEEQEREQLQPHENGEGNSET
Chain of Integrin alpha-V/beta-6 (P18564 22-788 limits assumed): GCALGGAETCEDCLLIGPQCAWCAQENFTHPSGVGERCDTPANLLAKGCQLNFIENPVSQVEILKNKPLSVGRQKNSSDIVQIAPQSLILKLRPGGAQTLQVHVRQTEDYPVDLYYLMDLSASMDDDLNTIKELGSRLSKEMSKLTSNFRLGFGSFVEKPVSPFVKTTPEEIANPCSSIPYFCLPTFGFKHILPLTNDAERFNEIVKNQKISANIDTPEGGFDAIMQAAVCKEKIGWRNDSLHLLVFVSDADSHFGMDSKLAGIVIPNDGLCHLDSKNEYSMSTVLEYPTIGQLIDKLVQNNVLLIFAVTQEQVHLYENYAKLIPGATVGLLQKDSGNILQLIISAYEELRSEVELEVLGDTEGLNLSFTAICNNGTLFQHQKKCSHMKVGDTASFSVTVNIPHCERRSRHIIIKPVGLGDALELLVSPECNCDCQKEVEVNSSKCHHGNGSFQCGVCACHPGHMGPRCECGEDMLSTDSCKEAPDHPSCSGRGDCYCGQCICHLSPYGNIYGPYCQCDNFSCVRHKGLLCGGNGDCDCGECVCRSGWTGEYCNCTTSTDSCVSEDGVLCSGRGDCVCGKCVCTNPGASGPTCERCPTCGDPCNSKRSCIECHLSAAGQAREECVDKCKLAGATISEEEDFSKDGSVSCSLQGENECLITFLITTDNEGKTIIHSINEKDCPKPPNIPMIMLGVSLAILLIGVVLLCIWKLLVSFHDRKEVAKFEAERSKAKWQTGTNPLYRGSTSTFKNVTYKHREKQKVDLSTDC
Chain of Integrin alpha-V/beta-3 (P05106 27-788 limits assumed): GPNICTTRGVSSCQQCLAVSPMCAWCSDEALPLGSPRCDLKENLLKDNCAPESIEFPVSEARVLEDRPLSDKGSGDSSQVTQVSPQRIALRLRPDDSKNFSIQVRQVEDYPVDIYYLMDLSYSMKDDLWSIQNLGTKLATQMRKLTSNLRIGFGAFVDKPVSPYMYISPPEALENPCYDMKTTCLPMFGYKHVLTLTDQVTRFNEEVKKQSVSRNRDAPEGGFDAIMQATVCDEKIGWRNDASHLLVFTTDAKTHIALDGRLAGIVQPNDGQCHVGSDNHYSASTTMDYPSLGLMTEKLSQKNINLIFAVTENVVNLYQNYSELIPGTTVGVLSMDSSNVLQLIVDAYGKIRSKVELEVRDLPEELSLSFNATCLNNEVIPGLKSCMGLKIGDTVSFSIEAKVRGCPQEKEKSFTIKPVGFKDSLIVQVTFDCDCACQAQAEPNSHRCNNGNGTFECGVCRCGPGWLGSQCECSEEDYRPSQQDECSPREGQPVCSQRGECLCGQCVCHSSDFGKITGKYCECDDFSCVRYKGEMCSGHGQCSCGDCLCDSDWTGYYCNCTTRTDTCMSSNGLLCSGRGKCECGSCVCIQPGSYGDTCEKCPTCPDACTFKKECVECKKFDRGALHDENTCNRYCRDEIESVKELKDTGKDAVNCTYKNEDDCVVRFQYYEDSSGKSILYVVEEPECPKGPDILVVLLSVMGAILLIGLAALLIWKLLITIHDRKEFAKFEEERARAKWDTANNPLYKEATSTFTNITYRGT
Chain of Integrin alpha-V/beta-3 (P06756 31-889 limits assumed): as the sequence (P06756 31-889 limits assumed) above
Chain of Integrin alpha-V/beta-3 (P06756 891-1048 limits assumed): as the sequence (P06756 891-1048 limits assumed) above
Chain of Integrin alpha-V/beta-5 (P06756 31-889 limits assumed): as the sequence (P06756 31-889 limits assumed) above
Chain of Integrin alpha-V/beta-5 (P06756 891-1048 limits assumed): as the sequence (P06756 891-1048 limits assumed) above
Chain of Integrin alpha-V/beta-5 (P18084 24-799 limits assumed): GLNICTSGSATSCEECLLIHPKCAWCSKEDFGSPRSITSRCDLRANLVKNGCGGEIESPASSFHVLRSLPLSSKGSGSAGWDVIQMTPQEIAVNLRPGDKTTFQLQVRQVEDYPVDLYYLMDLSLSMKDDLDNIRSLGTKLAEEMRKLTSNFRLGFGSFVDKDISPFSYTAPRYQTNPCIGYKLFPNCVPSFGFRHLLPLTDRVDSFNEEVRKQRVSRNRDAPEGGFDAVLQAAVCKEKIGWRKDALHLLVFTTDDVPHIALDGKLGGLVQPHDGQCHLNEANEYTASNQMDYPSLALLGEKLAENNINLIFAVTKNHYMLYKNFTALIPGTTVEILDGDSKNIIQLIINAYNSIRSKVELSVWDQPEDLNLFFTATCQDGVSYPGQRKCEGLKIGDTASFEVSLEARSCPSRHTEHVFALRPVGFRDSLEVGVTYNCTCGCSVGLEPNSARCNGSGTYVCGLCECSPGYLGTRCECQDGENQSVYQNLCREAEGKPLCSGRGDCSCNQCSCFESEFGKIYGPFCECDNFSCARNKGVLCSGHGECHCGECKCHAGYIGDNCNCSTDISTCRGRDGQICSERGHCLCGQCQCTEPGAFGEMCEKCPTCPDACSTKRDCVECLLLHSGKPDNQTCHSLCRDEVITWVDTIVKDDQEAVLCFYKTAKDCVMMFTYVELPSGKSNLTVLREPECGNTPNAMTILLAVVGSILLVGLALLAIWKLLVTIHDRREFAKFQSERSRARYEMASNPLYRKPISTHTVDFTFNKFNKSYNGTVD

Row | solubility kinetic [4] [µg/mL] | Papp A→B [5] [×10⁻⁶ cm/s] | CLH [6] [mL/min/g] | CL free [10] [mL/min/kg] | half-life [11] [h] | Vdss [12] [L/kg] | bioavailability [13] [%] | logD [21] | Papp A→B at 1 h [22] [×10⁻⁶ cm/s] | IC50 [23] [µM] | SMILES | also measured
1 | 258 (≈ 520 µM) | 8.7 | < 0.46 | 206 | 1.9 | 4.1 | 77 | 2.68 | 21.8 |  | O=C(O)C[C@H](CN1CC[C@@](F)(CCc2ccc3c(n2)NCCC3)C1)c1cccc(N2CCOCC2)c1 | CL free [1]: 18 mL/min/kg; IC50 [2]: > 10 µM; IC50 [3]: > 10 µM; CLH [7]: < 0.62 mL/min/g; CLH [8]: < 0.49 mL/min/g; CLH [9]: < 1.04 mL/min/g; half-life [14]: 6.1 h; Vdss [15]: 2.5 L/kg; bioavailability [16]: 74%; CL free [17]: 58 mL/min/kg; half-life [18]: 3 h; Vdss [19]: 2.5 L/kg; bioavailability [20]: 34%
2 |  |  |  |  |  |  |  | 2.27 | 2.7 |  | O=C(O)C[C@H](CN1CC[C@@H](CCc2ccc3c(n2)NCCC3)C1)c1cccc(N2CCOCC2)c1 | 
3 | 194 (≈ 390 µM) | 7.6 | < 0.4 | 58 | 2.8 | 1.9 | 61 | 2.84 | 26 |  | O=C(O)C[C@H](CN1CC[C@@](F)(CCc2ccc3c(n2)NCCC3)C1)c1cccc(O[C@H]2CCOC2)c1 | CL free [17]: 26 mL/min/kg; half-life [18]: 3.4 h; Vdss [19]: 1.4 L/kg; bioavailability [20]: 63%
4 |  |  |  |  |  |  |  | 4.02 | 37 | 2 | O=C(O)C[C@H](CN1CCC(F)(F)C(CCc2ccc3c(n2)NCCC3)C1)c1cccc(N2CCOCC2)c1 (stereo in doubt; 2a) | 
5 | 209 (≈ 408 µM) | 12.1 | < 0.4 | 182 | 3.5 | 4.9 | 50 | 3.18 | 17.2 |  | O=C(O)C[C@H](CN1CC[C@@](F)(CCc2ccc3c(n2)NCCC3)C1)c1cccc(OC2CCOCC2)c1 | IC50 [24]: 0.0316 µM; IC50 [25]: 0.0126 µM; CLH [7]: < 0.21 mL/min/g; CLH [8]: < 0.46 mL/min/g; CLH [9]: 1.6 mL/min/g
6 | 232 (≈ 466 µM) | 7.8 | < 0.4 | 88 | 3.1 | 3.3 | 90 | 2.76 | 20.5 |  | O=C(O)C[C@H](CN1CC[C@@](F)(CCc2ccc3c(n2)NCCC3)C1)c1cccc(O[C@@H]2CCOC2)c1 | IC50 [26]: 0.158 µM; IC50 [27]: 0.0631 µM; CLH [7]: < 0.21 mL/min/g; CLH [8]: < 0.46 mL/min/g; CLH [9]: 1.4 mL/min/g; CL free [17]: 34 mL/min/kg; half-life [18]: 1.7 h; Vdss [19]: 1.5 L/kg; bioavailability [20]: 66%
7 |  | 1.9 |  |  |  |  |  | 2.89 |  |  | COCCOc1cccc([C@H](CC(=O)O)CN2CC[C@](F)(CCc3ccc4c(n3)NCCC4)C2)c1 | AUC [28]: 101 ng·h/mL
8 |  |  |  |  |  |  |  | 3.46 | 36 | 0.631 | O=C(O)C[C@H](CN1CC(CCc2ccc3c(n2)NCCC3)CC(F)(F)C1)c1cccc(N2CCOCC2)c1 (stereo in doubt; 3a) | 
9 | 262 (≈ 518 µM) | 17.7 | < 0.53 |  |  |  |  | 3.3 | 33 | 0.01 | Cc1cc(C)n(-c2cccc([C@H](CC(=O)O)CN3CC[C@@](F)(CCc4ccc5c(n4)NCCC5)C3)c2)n1 | IC50 [27]: 0.316 µM; IC50 [24]: 0.2 µM; IC50 [25]: 0.02 µM; CLH [7]: < 0.86 mL/min/g; CLH [8]: 0.91 mL/min/g; CLH [9]: 13.75 mL/min/g
10 |  |  |  | 189 | 0.8 | 2.1 | < 2 |  |  |  | Cc1cc(C)n(-c2cccc([C@H](CC(=O)O)CN3CC[C@@H](CCc4ccc5c(n4)NCCC5)C3)c2)n1.Cl [GSK-3008348] | CL free [1]: 124 mL/min/kg; half-life [14]: 3.6 h; Vdss [15]: 3.6 L/kg; bioavailability [16]: 30%
11 |  |  |  |  |  |  |  |  |  | 0.0794 | O=C(O)C[C@H](CN1CC(CCc2ccc3c(n2)NCCC3)CC(F)(F)C1)c1cccc(N2CCOCC2)c1 (stereo in doubt; 3b) | logD [29]: 4.33; permeability [30]: 56 ×10⁻⁶ cm/s
12 |  |  |  |  |  |  |  | 2.66 | 9.3 |  | O=C(O)C[C@H](CN1CC[C@](F)(CCc2ccc3c(n2)NCCC3)C1)c1cccc(N2CCOCC2)c1 | IC50 [2]: > 10 µM; IC50 [3]: > 10 µM
13 | 127 (≈ 262 µM) | 8.7 |  |  |  |  |  | 2.93 | 14.6 |  | COCCOc1cccc([C@H](CC(=O)O)CN2CC[C@@](F)(CCc3ccc4c(n3)NCCC4)C2)c1 | Vdss [31]: 3.6 L/kg; bioavailability [32]: 93%; Vdss [15]: 1.4 L/kg; bioavailability [16]: 104%; Vdss [19]: 0.9 L/kg; bioavailability [20]: 84%; AUC [28]: 779 ng·h/mL; Activity [33]: Active; Activity [34]: Active
14 |  |  |  |  |  |  |  |  |  | 0.2 | O=C(O)C[C@H](CN1CCCC(F)(CCc2ccc3c(n2)NCCC3)C1)c1cccc(N2CCOCC2)c1 (stereo in doubt; 4b) | permeability [30]: 38 ×10⁻⁶ cm/s
15 |  |  |  |  |  |  |  |  |  | 0.501 | O=C(O)C[C@H](CN1CCC(F)(F)C(CCc2ccc3c(n2)NCCC3)C1)c1cccc(N2CCOCC2)c1 (stereo in doubt; 2b) | logD [29]: 4.62; permeability [30]: 56 ×10⁻⁶ cm/s
16 |  |  |  |  |  |  |  | 2.68 | 21.6 | 0.0501 | O=C(O)C[C@H](CN1CCCC(F)(CCc2ccc3c(n2)NCCC3)C1)c1cccc(N2CCOCC2)c1 (stereo in doubt; 4a) | 
